Reference: patent US10294202B2, “Pyrrolidinones as herbicides” (FMC Corporation, priority 2013, dated 2019)

Legend:
giant foxtail = experiment: Test A pre-/postemergence herbicide test; format: in vivo, Setaria faberii
Outline: (§1)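 Greenhouse pot test with pre- and postemergence application of surfactant-containing solvent formulations. Postemergence plants were 2–10 cm, one- to two-leaf stage. Response scored visually after ~10 days, 0 (no effect) to 100 (complete control).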

wheat = experiment: Test A pre-/postemergence herbicide test; format: in vivo, Triticum aestivum
Outline: as §1

corn [1] = experiment: Test A pre-/postemergence herbicide test; format: in vivo, Zea mays
Outline: as §1

sedge, umbrella = experiment: Test B flooded paddy test; format: in vivo, Cyperus difformis; conditions: 1000 g ai/ha, Flood; scale of 0 to 100 where 0 is no effect and 100 is complete control
Outline: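 Scoring: visual, compared with untreated controls, 0 = no effect through 100 = complete control, taken 13 to 15 days after treatment in the greenhouse. Compounds had been added to paddy water over soil flooded 3 cm deep at the plants' 2-leaf stage.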

blackgrass = experiment: Test C pre-/postemergence herbicide test; format: in vivo, Alopecurus myosuroides
Outline: (§2)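 Greenhouse pots; formulation = non-phytotoxic solvent mix + surfactant. PRE onto seeds in loam:sand; POST at 1–4 leaves (2–18 cm) in peat moss/vermiculite medium. Read-out: visual % control vs untreated, day 13–15.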

galium = experiment: Test C pre-/postemergence herbicide test; format: in vivo, Galium aparine
Outline: as §2

corn [2] = experiment: Test C pre-/postemergence herbicide test; format: in vivo, Zea mays
Outline: as §2

foxtail, giant = experiment: Test C pre-/postemergence herbicide test; format: in vivo, Setaria faberii
Outline: as §2

johnsongrass = experiment: Test C pre-/postemergence herbicide test; format: in vivo, Sorghum halepense
Outline: as §2

ragweed = experiment: Test C pre-/postemergence herbicide test; format: in vivo, Ambrosia elatior
Outline: as §2

oilseed rape = experiment: Test C pre-/postemergence herbicide test; format: in vivo, Brassica napus
Outline: as §2

[3] = Postemergence, 1000 g ai/ha, 0 to 100 scale (0 no effect, 100 complete control)
[4] = preemergence, 1000 g ai/ha, 0 to 100 scale
[5] = Postemergence, 31 g ai/ha, scale 0 (no effect) to 100 (complete control)
[6] = Postemergence, 62 g ai/ha, scale 0 to 100 (0 no effect, 100 complete control)
[7] = Postemergence, 125 g ai/ha, scale 0 to 100 (0 no effect, 100 complete control)
[8] = Postemergence, 250 g ai/ha, scale 0 to 100 (0 no effect, 100 complete control)
[9] = Postemergence, 125 g ai/ha, 0 to 100 scale, 0 no effect, 100 complete control
[10] = Postemergence, 500 g ai/ha, 0 to 100 scale (0 no effect, 100 complete control)
[11] = Preemergence, 31 g ai/ha, scale 0 to 100, 0 is no effect and 100 is complete control
[12] = Preemergence, 62 g ai/ha, scale 0 to 100
[13] = Preemergence, 125 g ai/ha, scale 0 to 100 (0 no effect, 100 complete control)

Cc1c(F)cccc1NC(=O)C1C(=O)NCC1c1ccc(F)c(F)c1 (racemic) [Compound 106]
25: Plant response rating, Ragweed (ragweed; [5])
90: Plant response rating, Foxtail, Giant (giant foxtail; [3]) | Plant response rating, Foxtail, Giant (giant foxtail; [4])
45: Plant response rating, Foxtail, Giant (foxtail, giant; [7])
0: Plant response rating, Sedge, Umbrella (sedge, umbrella) | Plant response rating, Blackgrass (blackgrass; [5]) | Plant response rating, Blackgrass (blackgrass; [6]) | Plant response rating, Blackgrass (blackgrass; [7]) | Plant response rating, Blackgrass (blackgrass; [8]) | Plant response rating, Galium (galium; [5]) | Plant response rating, Galium (galium; [6]) | Plant response rating, Corn (corn [2]; [5]) | Plant response rating, Corn (corn [2]; [6]) | Plant response rating, Corn (corn [2]; [7]) | Plant response rating, Corn (corn [2]; [8]) | Plant response rating, Johnsongrass (johnsongrass; [5]) | Plant response rating, Johnsongrass (johnsongrass; [6]) | Plant response rating, Johnsongrass (johnsongrass; [7]) | Plant response rating, Johnsongrass (johnsongrass; [8]) | Plant response rating, Ragweed (ragweed; [6]) | Plant response rating, Ragweed (ragweed; [7]) | Plant response rating, Oilseed Rape (oilseed rape; [5]) | Plant response rating, Oilseed Rape (oilseed rape; [6]) | Plant response rating, Oilseed Rape (oilseed rape; [7]) | Plant response rating, Oilseed Rape (oilseed rape; [8])
50: Plant response rating, Wheat (wheat; [4]) | Plant response rating, Corn (corn [1]; [3]) | Plant response rating, Galium (galium; [7]) | Plant response rating, Foxtail, Giant (foxtail, giant; [5]) | Plant response rating, Foxtail, Giant (foxtail, giant; [8])
30: Plant response rating, Wheat (wheat; [3]) | Plant response rating, Corn (corn [1]; [4])
35: Plant response rating, Galium (galium; [8]) | Plant response rating, Foxtail, Giant (foxtail, giant; [6])
5: Plant response rating, Ragweed (ragweed; [8])

Cc1ccccc1NC(=O)C1C(=O)NCC1c1cccc(C(F)(F)F)c1 (racemic) [Compound 109]
70: Plant response rating, Foxtail, Giant (foxtail, giant; [8]) | Plant response rating (scale of 0 to 100), Johnsongrass (johnsongrass; Preemergence, 250 g ai/ha)
75: Plant response rating (scale of 0 to 100), Corn (corn [2]; Preemergence, 250 g ai/ha)
80: Plant response rating, Corn (corn [1]; [10]) | Plant response rating, Sedge, Umbrella (sedge, umbrella)
90: Plant response rating, Foxtail, Giant (giant foxtail; [9]) | Plant response rating, Foxtail, Giant (giant foxtail; [10]) | Foxtail, Giant plant response rating (giant foxtail; Preemergence, 125 g ai/ha, visual rating on 0 to 100 scale (0 no effect, 100 complete control)) | Plant response rating, Foxtail, Giant (giant foxtail; preemergence, 500 g ai/ha, 0 to 100 scale) | Plant response rating, Blackgrass (blackgrass; [13]) | Foxtail, Giant plant response rating (foxtail, giant; [11])
95: Plant response rating (scale of 0 to 100), Blackgrass (blackgrass; Preemergence, 250 g ai/ha) | Plant response rating, Foxtail, Giant (foxtail, giant; [12])
0: Plant response rating, Blackgrass (blackgrass; [5]) | Plant response rating, Blackgrass (blackgrass; [6]) | Plant response rating, Blackgrass (blackgrass; [7]) | Plant response rating, Blackgrass (blackgrass; [8]) | Blackgrass plant response rating (blackgrass; [11]) | Plant response rating, Galium (galium; [5]) | Plant response rating, Galium (galium; [6]) | Plant response rating, Corn (corn [2]; [5]) | Plant response rating, Corn (corn [2]; [6]) | Plant response rating, Corn (corn [2]; [7]) | Corn plant response rating (corn [2]; [11]) | Plant response rating, Johnsongrass (johnsongrass; [5]) | Plant response rating, Johnsongrass (johnsongrass; [6]) | Plant response rating, Johnsongrass (johnsongrass; [7]) | Plant response rating, Johnsongrass (johnsongrass; [8]) | Johnsongrass plant response rating (johnsongrass; [11]) | Plant response rating, Ragweed (ragweed; [5]) | Plant response rating, Ragweed (ragweed; [6]) | Plant response rating, Ragweed (ragweed; [7]) | Ragweed plant response rating (ragweed; [11]) | Plant response rating, Ragweed (ragweed; [12]) | Plant response rating, Ragweed (ragweed; [13]) | Plant response rating, Oilseed Rape (oilseed rape; [5]) | Plant response rating, Oilseed Rape (oilseed rape; [6]) | Oilseed Rape plant response rating (oilseed rape; [11]) | Plant response rating, Oilseed Rape (oilseed rape; [12])
5: Plant response rating, Corn (corn [2]; [8]) | Plant response rating, Corn (corn [2]; [12]) | Plant response rating, Ragweed (ragweed; [8]) | Plant response rating, Oilseed Rape (oilseed rape; [7]) | Plant response rating, Oilseed Rape (oilseed rape; [8]) | Plant response rating, Oilseed Rape (oilseed rape; [13])
50: Plant response rating, Corn (corn [1]; [9]) | Plant response rating, Galium (galium; [13]) | Plant response rating, Foxtail, Giant (foxtail, giant; [7])
20: Plant response rating, Wheat (wheat; [9])
10: Plant response rating, Johnsongrass (johnsongrass; [12]) | Plant response rating (scale of 0 to 100), Ragweed (ragweed; Preemergence, 250 g ai/ha)
60: Plant response rating, Wheat (wheat; [10]) | Plant response rating, Blackgrass (blackgrass; [12]) | Galium plant response rating (galium; [11]) | Plant response rating, Corn (corn [2]; [13]) | Plant response rating, Foxtail, Giant (foxtail, giant; [5])
15: Plant response rating, Foxtail, Giant (foxtail, giant; [6])
40: Plant response rating, Johnsongrass (johnsongrass; [13]) | Plant response rating (scale of 0 to 100), Oilseed Rape (oilseed rape; Preemergence, 250 g ai/ha)
98: Plant response rating, Foxtail, Giant (foxtail, giant; [13])
100: Plant response rating, Galium (galium; [12]) | Plant response rating (scale of 0 to 100), Galium (galium; Preemergence, 250 g ai/ha) | Plant response rating (scale of 0 to 100), Foxtail, Giant (foxtail, giant; Preemergence, 250 g ai/ha)
30: Plant response rating, Galium (galium; [7]) | Plant response rating, Galium (galium; [8])
